# Measured values reported in patent US4691024A, “New mitomycin derivatives, preparation thereof and pharmaceutical compositions containing them” (priority 1984, dated 1987).
# Assays:
# [1] = system: Streptococcus faecalis ATCC 10541; assay: Antibacterial activity, minimum growth inhibitory concentration by agar dilution method (SF); type: cell-based; conditions: Enterococcus faecalis, ATCC10541, pH 7, read-out: MIC, Streptococcus faecalis (SF)
# Procedure: (§1) The various compounds of formula (I) of Examples 1-26 were tested for antibacterial activity against 6 microorganisms. […]. In this table, the following symbols are used:
# SF: Streptococcus faecalis ATCC 10541
# [2] = system: Staphylococcus aureus ATCC 6538P; assay: Antibacterial activity, minimum growth inhibitory concentration by agar dilution method (SA); type: cell-based; conditions: ATCC6538P, pH 7, read-out: MIC, Staphylococcus aureus (SA)
# Procedure: as §1
# SA: Staphylococcus aureus ATCC 6538P
# [3] = system: Proteus vulgaris ATCC 6897; assay: Antibacterial activity, minimum growth inhibitory concentration by agar dilution method (PV); type: cell-based; conditions: ATCC6897, pH 7, read-out: MIC, Proteus vulgaris (PV)
# Procedure: as §1
# PV: Proteus vulgaris ATCC 6897
# peripheral leucocytes = assay: Effect on the peripheral leucocytes number in Sarcoma 180 bearing mice; type: in vivo; conditions: Sarcoma 180 bearing ddy mice; intraperitoneal 24 hours after implantation; blood 4 days later
# Procedure: (§2) The antitumour-activity and toxicity of various compounds of formula (I) were investigated as indicated below.
# (4) Effect on the peripheral leucocytes number
# Sarcoma 180 solid tumour cells (5×10^6) were subcutaneously implanted into the right arm pit of each mouse (body weight 20±2 g) of a group consisting of 5 male mice (ddy strain). 24 hours after implantation, a test compound was intraperitoneally administered to each animal. 4 days later, blood (each 0.02 ml) was collected from the suborbital plexus vein of each tumour-carrying animal. The collected sample of the blood was dispersed in 9.98 ml of Cell-Kit Seven solution. One drop of saponin solution was added to the sample to dissolve erythrocytes, and then a microcell counter was used to measure the number of leucocytes. On a graph paper, the number of leucocytes was indicated on the y-axis by an arithmetic scale and the dose of the test compound was indicated on the x-axis by a logarithmic scale. The relationship between the number of peripheral leucocytes and the dosage of the test compound was plotted and the dosage corresponding to 4000 peripheral leucocytes/mm^3 (about 1/2 the number of leucocytes of normal mice) was obtained. This value is denoted in Table 5 by WBC4000.
# [4] = Acute toxicity in mice (LD50, Behrens Kerber's method); conditions: mouse, in vivo, ip; ddy mice, single intraperitoneal administration, 14 days observation
# Procedure: as §2
# Each animal of the test group consisting of 5 ddy mice was administered intraperitoneally once with a test compound. […] The LD50 was determined by Behrens Kerber's method.
# Sarcoma 180 solid tumour = assay: Anti-tumour activity against Sarcoma 180 solid tumour in mice; type: in vivo; conditions: Mus musculus, sc, 168 h; Sarcoma 180 s.c. in ddy mice; into tail vein 24 hours after implantation; volume at 7 days; read-out: ED50 (dose reducing tumour volume to 50% of control)
# Procedure: as §2
# (1) Effect against Sarcoma 180 solid tumour cells
# 5×10^6 cells of Sarcoma 180 solid tumour were intraperitoneally implanted into ddy mice. 7 days later, ascites cells were sampled. The cells were washed once with a sterilized physiological solution of sodium chloride and were used to prepare a cell suspension containing 5×10^7 cells per ml. On each occasion, 0.1 ml of the cell suspension was subcutaneously implanted into the right arm pit of a male mouse (ddy strain; body weight 20±2 g). The test compound was dissolved in a physiological solution of sodium chloride with or without addition of Tween 80 and was administered into the tail vein of each mouse of a group consisting of 5 mice at a dose of 0.1-0.2 ml, 24 hours after the implantation of the tumour cells.
# The anti-tumour activity was determined in the following manner. 7 days after the implantation, the major axis (a) and the minor axis (b) of the tumour were measured to calculate a value of "a×b^2 /2" which corresponds to the volume of the tumour. The anti-tumour activity was expressed by the ratio of the volume of the tumours (T) of the group of animals administered with the test compound to the corresponding volume of tumours (c) of the untreated animals.
# (2) Determination of ED50
# (The amount needed for reducing the volume of Sarcoma 180 solid tumours in mice to 50% on the basis of the corresponding volume of Sarcoma solid tumours in control untreated animals). On graph paper, T/C (the ratio of the volume of tumours of treated and control animals) was indicated by an arithmetic scale on the longitudinal axis and the administered amount of the test compound was indicated by a logarithmic scale on the lateral axis.
# The relationship between the dose and T/C was shown by a straight line determined by the method of least squares, from which a dose corresponding to T/C of 0.5 was obtained.
# Bacillus subtilis 10707 = assay: Antibacterial activity, minimum growth inhibitory concentration by agar dilution method (BS); type: cell-based; conditions: Bacillus subtilis, 10707, pH 7, read-out: MIC, Bacillus subtilis (BS)
# Procedure: as §1
# BS: Bacillus subtilis 10707
# [5] = system: Shigella sonnei ATCC 9290; assay: Antibacterial activity, minimum growth inhibitory concentration by agar dilution method (SS); type: cell-based; conditions: ATCC9290, pH 7, read-out: MIC, Shigella sonnei (SS)
# Procedure: as §1
# SS: Shigella sonnei ATCC 9290
# [6] = system: Klebsiella pneumoniae ATCC 10031; assay: microbe, parasite or virus in culture; type: cell-based; conditions: ATCC10031, pH 7, read-out: MIC, Klebsiella pneumoniae (KP)
# Description: In this table, the following symbols are used:
# KP: Klebsiella pneumoniae ATCC 10031
# [7] = Solubility in 0.03M phosphate buffered solution; type: physicochemical; conditions: 0.03m phosphate buffer, aqueous buffer, pH 7.0, 23° C.
# Procedure: The solubilities of Compound 5, Compound 14 and Compound 20 in 0.03M phosphate buffered solution (pH 7.0, 23° C.) were determined.
# [8] = Stability of the product as observed on isolation; type: physicochemical; conditions: in words; yield not constant
# Procedure: To this solution is added dropwise 1 ml of methanol containing 23 mg of L-cysteine methyl ester hydrochloride and 50 μl of triethylamine. About 2 minutes later, the solvent is removed from the mixture by distillation under reduced pressure. Then, a similar treatment to that described in Example 1 is effected to obtain a small amount of Compound 16 as a grayish green powder. The yield of the resultant compound is not constant because of its unstability.
# The yield is not constant because of unstability of the product.
Structure (SMILES),MIC [1],MIC [2],MIC [3],WBC4000 (dosage corresponding to 4000 peripheral leucocytes/mm^3) (peripheral leucocytes),LD50 at 336 h [4],ED50 (Sarcoma 180 solid tumour),MIC (Bacillus subtilis 10707),MIC [5],MIC [6],solubility [7],stability of the resultant compound [8]
"CC1=C(NCCSSC[C@H](N)C(=O)O)C(=O)C2=C(C1=O)N1C[C@H]3[C@H](N3C)[C@]1(O)[C@H]2COC(N)=O (stereo partly drawn) [Compound 15, 7-N-[2-[(L-Cystein-S-yl)thio]ethyl]mitomycin D]",13 µg/mL,13 µg/mL,13 µg/mL,81.9 mg/kg,135 mg/kg,54 mg/kg,6.3 µg/mL,–,–,–,–
"CO[C@@]12[C@H](COC(N)=O)C3=C(C(=O)C(C)=C(NCCSSc4ccc(NC(C)=O)cc4)C3=O)N1C[C@@H]1N[C@@H]12 [Compound 5, 7-N-[2-(4-Acetamidophenyldithio)ethyl]mitomycin C]",0.04 µg/mL,0.02 µg/mL,5 µg/mL,14.2 mg/kg,30 mg/kg,8.5 mg/kg,0.005 µg/mL,> 40 µg/mL,0.16 µg/mL,0.052 mg/mL,–
"CO[C@@]12[C@H](COC(N)=O)C3=C(C(=O)C(C)=C(NCCSSc4cccc(N)c4)C3=O)N1C[C@@H]1N[C@@H]12 [Compound 3, 7-N-[2-(3-aminophenyldithio)ethyl]mitomycin C]",0.04 µg/mL,0.08 µg/mL,5 µg/mL,> 10 mg/kg,7.5 mg/kg,5 mg/kg,< 0.01 µg/mL,20 µg/mL,0.63 µg/mL,–,–
CCOC(=O)[C@@H](N)CSSCCNC1=C(C)C(=O)C2=C(C1=O)[C@@H](COC(N)=O)[C@@]1(OC)[C@H]3N[C@H]3CN21 [Compound 17],0.2 µg/mL,0.2 µg/mL,1.6 µg/mL,–,–,–,< 0.02 µg/mL,25 µg/mL,0.2 µg/mL,–,unstability
"CO[C@@]12[C@H](COC(N)=O)C3=C(C(=O)C(C)=C(NCCSSC[C@H](N)C(=O)NCC(=O)O)C3=O)N1C[C@@H]1N[C@@H]12 [Compound 20, 7-N-[2-[(Glycino-L-cystein-S-71)thio]ethyl]mitomycin C]",0.63 µg/mL,0.31 µg/mL,5 µg/mL,20.5 mg/kg,27 mg/kg,9.6 mg/kg,0.08 µg/mL,–,0.63 µg/mL,> 100 mg/mL,–
"CO[C@@]12[C@H](COC(N)=O)C3=C(C(=O)C(C)=C(NCCSSc4ccc(F)cc4)C3=O)N1C[C@@H]1N[C@@H]12 [Compound 12, 7-N-[2-(4-Fluorophenyldithio)ethyl]mitomycin C]",< 0.02 µg/mL,< 0.02 µg/mL,0.63 µg/mL,10.4 mg/kg,6.8 mg/kg,3.5 mg/kg,< 0.02 µg/mL,20 µg/mL,0.31 µg/mL,–,–
"COc1ccc(SSCCNC2=C(C)C(=O)C3=C(C2=O)[C@@H](COC(N)=O)[C@@]2(OC)[C@H]4N[C@H]4CN32)cc1 [Compound 9, 7-N-[2-(4-Methoxyphenyldithio)ethyl]mitomycin C]",< 0.02 µg/mL,< 0.02 µg/mL,1.3 µg/mL,> 10 mg/kg,5.3 mg/kg,7.4 mg/kg,< 0.02 µg/mL,40 µg/mL,0.63 µg/mL,–,–
"CC1=C(NCCSSC[C@H](N)C(=O)NCC(=O)O)C(=O)C2=C(C1=O)N1C[C@H]3[C@H](N3C)[C@]1(O)[C@H]2COC(N)=O (stereo partly drawn) [Compound 21, 7-N-[2-[(Glycino-L-cystein-S-yl)thio]ethyl]mitomycin D]",13 µg/mL,13 µg/mL,13 µg/mL,83.9 mg/kg,> 200 mg/kg,61.1 mg/kg,3.1 µg/mL,–,–,–,–
"CC(=O)Nc1ccc(SSCCNC2=C(C)C(=O)C3=C(C2=O)[C@H](COC(N)=O)[C@@]2(O)[C@@H]4[C@H](CN32)N4C)cc1 (stereo partly drawn) [Compound 7, 7-N-[2-(4-Acetamidophenyldithio)ethyl]mitomycin D]",5 µg/mL,10 µg/mL,> 40 µg/mL,45.5 mg/kg,46.3 mg/kg,> 25 mg/kg,5 µg/mL,–,–,–,–
"CO[C@@]12[C@H](COC(N)=O)C3=C(C(=O)C(C)=C(NCCSSC[C@H](N)C(=O)O)C3=O)N1C[C@@H]1N[C@@H]12 [Compound 14, 7-N-[2-[(L-Cystein-S-yl)thio]ethyl]mitomycin C]",0.31 µg/mL,0.31 µg/mL,5 µg/mL,26.9 mg/kg,30 mg/kg,15.4 mg/kg,0.16 µg/mL,> 20 µg/mL,0.63 µg/mL,> 100 mg/mL,–
"CO[C@@]12[C@H](COC(N)=O)C3=C(C(=O)C(C)=C(NCCSSc4ccc(Cl)cc4)C3=O)N1C[C@@H]1N[C@@H]12 [Compound 11, 7-N-[2-(4-Chlorophenyldithio)ethyl]mitomycin C]",0.04 µg/mL,< 0.01 µg/mL,0.63 µg/mL,> 10 mg/kg,9 mg/kg,4.5 mg/kg,< 0.01 µg/mL,10 µg/mL,0.63 µg/mL,–,–
"CO[C@@]12[C@H](COC(N)=O)C3=C(C(=O)C(C)=C(NCCSSc4ccc(N)cc4)C3=O)N1C[C@@H]1N[C@@H]12 [Compound 4, 7-N-[2-(4-aminophenyldithio)ethyl]mitomycin C]",0.04 µg/mL,0.08 µg/mL,5 µg/mL,> 10 mg/kg,9 mg/kg,5.1 mg/kg,0.02 µg/mL,> 20 µg/mL,1.3 µg/mL,–,–
"CO[C@@]12[C@H](COC(N)=O)C3=C(C(=O)C(C)=C(NCCSSC(C)(C)[C@H](N)C(=O)O)C3=O)N1C[C@@H]1N[C@@H]12 [Compound 18, 7-N-[2-[(L-Pencillamin-S-yl)thio]ethyl]mitomycin C]",0.63 µg/mL,0.31 µg/mL,0.31 µg/mL,18.8 mg/kg,30 mg/kg,9.9 mg/kg,0.08 µg/mL,> 20 µg/mL,0.08 µg/mL,–,–
CO[C@@]12[C@H](COC(N)=O)C3=C(C(=O)C(C)=C(NCCSSC(C)(C)[C@@H](N)C(=O)O)C3=O)N1C[C@@H]1N[C@@H]12 [Compound 28],–,–,–,16.3 mg/kg,26.3 mg/kg,8.2 mg/kg,–,–,–,–,–
